Test results as given in the NIST ThermoML archive (doi:10.1016/j.jct.2013.12.021).
± gives the expanded uncertainty stated by the source.

Experiment: Boiling temperature at pressure P
Conditions: 101.33 kPa; Liquid; Ebulliometric method (Recirculating still)

## CO [methanol]
  Boiling temperature at pressure P: 64.50 ± 0.1 °C
